Like-named read-outs stand apart in the source and are kept apart here.
How the values were obtained:
[1] = system: L. donovani promastigotes; experiment: L. donovani promastigote compound sensitivity assay (with/without metal salts)
Description: (§1) The clonal Leishmania donovani cell line LdBOB (derived from MHOM/SD/62/1S-CL2D) was grown as promastigotes at 28°C, as described previously ([53]). Bloodstream-form T. brucei MiTat 1.2 clone 221a and its derived subline, 2T1, were cultured at 37°C in the presence of 5% CO2 in HMI9-T medium, as described previously ([54]). The human carcinoma HepG2 cell line was grown at 37°C with 5% CO2 in minimal Eagle's medium (MEM) with GlutaMAX (1×; Sigma-Aldrich), nonessential amino acids (Sigma-Aldrich), and 10% FBS. Human HepG2 and THP-1 cells used in this study were ethically sourced from the ATCC.
(§2) L. donovani intramacrophage ([7]), HepG2 ([55]), T. brucei ([56]), and L. donovani promastigote ([57]) compound sensitivity assays were carried out as described previously. Human HepG2 and THP-1 cells used in these assays were provided by the ATCC. Data were processed by using GRAFIT (version 5.0.4; Erithacus Software) and fitted to a 2-parameter equation to obtain the effective concentration inhibiting growth by 50% (EC50). Data are presented as the means of results from at least two independent experiments.
(§3) In the first instance, the maximum tolerated concentrations of ZnCl2, CaCl2, CuCl2, MgCl2, MnCl2, and FeCl2 were determined for each cell type. […] Standard drug sensitivity assays were carried out (as described above) for each cell type with compounds 1, 2, and 3 in the presence and absence of the maximum tolerated concentration of metal salt.

[2] = system: T. brucei bloodstream forms; experiment: microbe, parasite or virus in culture
Description: as §1, §2, §3

Cc1nnc(-c2nc(NCc3ccc(Cl)cc3)c3cccnc3c2O)[nH]1 [Compound 1]
EC50 ([1]; Leishmania donovani, read-out: EC50 values, WT, promastigotes, absence of cation, FeCl2 experiment): 800 ± 30 nM
EC50 ([1]; Leishmania donovani, read-out: EC50 values, WT, promastigotes, absence of cation, ZnCl2 experiment): 800 ± 10 nM
EC50 ([1]; Leishmania donovani, read-out: L. donovani pro EC50, promastigotes (Fig. 1)): 760 nM
Shift ([1]; promastigotes, FeCl2 (100 μM) vs WT): 2.0 fold
Shift ([1]; promastigotes, ZnCl2 (100 μM) vs WT): 11.0 fold
Shift ([1]; promastigotes, ZnCl2 (100 μM) vs WT, listed as compound 1): 11 fold
EC50 ([1]; read-out: EC50 values, WT, promastigotes, absence of cation, FeCl2 experiment): 780 ± 30 nM
Shift (fold) ([2]; CaCl2 (3 mM) vs WT): 1.1 fold
Shift (fold) ([2]; CuCl2 (5 μM) vs WT): 1.1 fold
Shift (fold) ([2]; FeCl2 (10 μM) vs WT): 8.0 fold
Shift (fold) ([2]; FeCl2 (10 μM) vs WT, listed as compound 1): 8 fold
Shift (fold) ([2]; MgCl2 (1 mM) vs WT): 1.1 fold
Shift (fold) ([2]; MnCl2 (10 μM) vs WT): 1.0 fold
EC50 ([2]; Trypanosoma brucei, read-out: EC50, wild-type [WT] trypanosomes): 850 ± 50 nM
EC50 ([2]; Trypanosoma brucei, read-out: Mean EC50 ± SD, Plus cation, plus CaCl2 (3 mM)): 400 ± 100 nM
EC50 ([2]; Trypanosoma brucei, read-out: Mean EC50 ± SD, Plus cation, plus CuCl2 (5 μM)): 400 ± 5 nM
EC50 ([2]; Trypanosoma brucei, read-out: Mean EC50 ± SD, Plus cation, plus MgCl2 (1 mM)): 400 ± 30 nM
EC50 ([2]; Trypanosoma brucei, read-out: Mean EC50 ± SD, Plus cation, plus MnCl2 (10 μM)): 400 ± 20 nM
EC50 ([2]; Trypanosoma brucei, read-out: Mean EC50 ± SD, WT, absence of cation, CaCl2 experiment): 300 ± 800 nM
EC50 ([2]; Trypanosoma brucei, read-out: Mean EC50 ± SD, WT, absence of cation, CuCl2 experiment): 300 ± 80 nM
EC50 ([2]; Trypanosoma brucei, read-out: Mean EC50 ± SD, WT, absence of cation, FeCl2 experiment): 220 ± 10 nM
EC50 ([2]; Trypanosoma brucei, read-out: Mean EC50 ± SD, WT, absence of cation, MgCl2 experiment): 400 ± 10 nM
EC50 ([2]; Trypanosoma brucei, read-out: Mean EC50 ± SD, WT, absence of cation, MnCl2 experiment): 400 ± 10 nM
EC50 ([2]; Trypanosoma brucei, read-out: Mean EC50 ± SD, WT, absence of cation, ZnCl2 experiment): 360 ± 90 nM
EC50 ([2]; Trypanosoma brucei, read-out: T. brucei bsf EC50, bloodstream form (Fig. 1)): 320 nM
Shift (fold) ([2]; ZnCl2 (200 μM) vs WT): 8.0 fold
Shift (fold) ([2]; ZnCl2 (200 μM) vs WT, listed as compound 1): 8 fold
EC50 ([2]; read-out: Mean EC50 ± SD, WT, absence of cation, FeCl2 experiment): 200 ± 10 nM
EC50 ([2]; read-out: Mean EC50 ± SD, WT, absence of cation, ZnCl2 experiment): 350 ± 10 nM
